Results taken from patent publication US20230240302A1, “Antimicrobial silver coordination complexes” (Penta Science Industries Holding B.V., priority 2020, published 2023).

What was measured:
[1] = Solubility; format: physicochemical
[2] = Photochemical and thermal stability; format: physicochemical

solubility in aqueous solution [1]	photochemical and thermal stability [2]	Compound
very high solubility	–	O=S(=O)([O-])CCC[S-].O=S(=O)([O-])CCC[S-].[Ag+].[Na+].[Na+].[Na+] [Na^+3[Ag^+(MPS^2−)2]^3−]
very high solubility	thermally and photochemically stable	O=C([O-])c1ccccc1[S-].O=C([O-])c1ccccc1[S-].[Ag+].[Na+].[Na+].[Na+] [Na^+3[Ag^+(TS^2−)2]^3−]
very high solubility	thermally and photochemically stable	O=S(=O)([O-])c1ccc2[nH]c([S-])nc2c1.O=S(=O)([O-])c1ccc2[nH]c([S-])nc2c1.[Ag+].[Na+].[Na+].[Na+] [Na^+3[Ag^+(X^2−)2]^3−]
